Data taken from ChEMBL document CHEMBL1144160, “Discovery and optimization of (R)-prolinol-derived agonists of the Growth Hormone Secretagogue receptor (GHSR)” (Bioorg Med Chem Lett, 2008).

What was measured:
[1] = target: T1, Growth hormone secretagogue receptor type 1 (Homo sapiens, UniProt Q92847); test: Agonist activity at GHSR; format: functional
[2] = target: T1, Growth hormone secretagogue receptor type 1; test: Agonist activity at GHSR relative to full agonist; format: functional
[3] = target: T1, Growth hormone secretagogue receptor type 1; test: Binding affinity to GHSR

T1 sequence (Q92847 whole entry): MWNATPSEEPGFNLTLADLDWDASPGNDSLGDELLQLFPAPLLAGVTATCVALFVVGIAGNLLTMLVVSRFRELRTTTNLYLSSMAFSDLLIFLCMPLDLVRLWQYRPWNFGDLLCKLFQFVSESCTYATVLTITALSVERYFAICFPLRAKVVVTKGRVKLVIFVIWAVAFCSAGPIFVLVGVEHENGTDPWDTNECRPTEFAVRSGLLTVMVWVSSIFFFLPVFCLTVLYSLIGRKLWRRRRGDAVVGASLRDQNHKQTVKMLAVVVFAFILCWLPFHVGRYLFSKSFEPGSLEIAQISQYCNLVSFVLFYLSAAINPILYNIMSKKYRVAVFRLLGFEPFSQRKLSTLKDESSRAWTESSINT

SMILES	EC50 [1] [nM]	Activity [2] [%]	Ki [3] [nM]
CC(Oc1ccccc1Cl)C(=O)N(C[C@H]1CCCN1)c1ccc(Cl)cc1 (stereo partly specified)	≥ 10000		
CC(Oc1cccc(Cl)c1)C(=O)N(C[C@H]1CCCN1)c1ccccc1 (stereo partly specified)	120	60	
Cc1ccccc1CN(C[C@H]1CCCN1)C(=O)C(C)Oc1ccccc1Cl (stereo partly specified)	140	90	
CC(Oc1ccccc1Cl)C(=O)N(C[C@H]1CCCN1)c1cccc(Cl)c1 (stereo partly specified)	250	60	
Cc1cccc(CN(C[C@H]2CCCN2)C(=O)C(C)Oc2cccc(Cl)c2)c1 (stereo partly specified)	120	20	
CC(Oc1cccc(Cl)c1)C(=O)N(Cc1cccc(Cl)c1)C[C@H]1CCCN1 (stereo partly specified)	20	70	
Cc1ccccc1CN(C[C@H]1CCCN1)C(=O)C(C)Oc1ccccc1 (stereo partly specified)	40	110	
CC(Oc1ccccc1)C(=O)N(Cc1ccc(Cl)cc1)C[C@H]1CCCN1 (stereo partly specified)	220	80	
CC(Oc1cccc(Cl)c1)C(=O)N(C[C@H]1CCCN1)c1ccccc1Cl (stereo partly specified)	780	70	
CC(=O)Nc1ccc(N(C[C@H]2CCCN2)C(=O)COc2ccccc2)cc1	2000		
CC(Oc1cccc(Cl)c1)C(=O)N(C[C@H]1CCCN1)c1cccc(Cl)c1 (stereo partly specified)	40	110	
CCC(Oc1ccccc1)C(=O)N(C[C@H]1CCCN1)c1cccc(OC)c1 (stereo partly specified)	> 10000		
CC(Oc1cccc(Cl)c1)C(=O)N(Cc1ccccc1Cl)C[C@H]1CCCN1 (stereo partly specified)	40	80	
COc1c(-c2ccccc2)cccc1N(C[C@H]1CCCN1)C(=O)COc1ccccc1	5000		
CC(Oc1cccc(Cl)c1)C(=O)N(C[C@H]1CCCN1)c1ccc(Cl)cc1 (stereo partly specified)	120	90	
CC(Oc1ccccc1)C(=O)N(Cc1ccccc1Cl)C[C@H]1CCCN1 (stereo partly specified)	150	100	
CC(Oc1ccccc1Cl)C(=O)N(Cc1ccccc1)C[C@H]1CCCN1 (stereo partly specified)	20	60	
CCC(Oc1ccccc1)C(=O)N(C[C@H]1CCCN1)c1ccc(NC(C)=O)cc1 (stereo partly specified)	4000		
O=C(COc1ccccc1)N(Cc1ccccc1)C[C@H]1CCCN1	> 10000		

SMILES	EC50 [1] [nM]	Activity [2] [%]	Ki [3] [nM]
COc1cccc(N(C[C@H]2CCCN2)C(=O)COc2ccccc2)c1	> 10000		
CC(Oc1ccccc1Cl)C(=O)N(C[C@H]1CCCN1)c1ccccc1Cl (stereo partly specified)	≥ 10000		
CC(=O)Nc1cccc(N(C[C@H]2CCCN2)C(=O)C(C)Oc2ccccc2)c1 (stereo partly specified)	1000	80	
CCC(Oc1ccccc1)C(=O)N(C[C@H]1CCCN1)c1cccc(-c2ccccc2)c1OC (stereo partly specified)	2000		
CC(Oc1ccccc1)C(=O)N(C[C@H]1CCCN1)c1ccccc1Cl (stereo partly specified)	1260	80	
CSc1cccc(N(C[C@H]2CCCN2)C(=O)C(C)Oc2ccccc2)c1 (stereo partly specified)	2000		
CC(Oc1ccccc1Cl)C(=O)N(Cc1cccc(Cl)c1)C[C@H]1CCCN1 (stereo partly specified)	10	90	
CC(Oc1ccccc1Cl)C(=O)N(C[C@H]1CCCN1)c1ccccc1 (stereo partly specified)	≥ 10000		
CC(Oc1cccc(Cl)c1)C(=O)N(Cc1ccccc1)C[C@H]1CCCN1 (stereo partly specified)	7	80	300
Cc1cccc(CN(C[C@H]2CCCN2)C(=O)C(C)Oc2ccccc2Cl)c1 (stereo partly specified)	90	70	
CC(Oc1ccccc1)C(=O)N(C[C@H]1CCCN1)c1cccc(Cl)c1 (stereo partly specified)	90	110	
CC(Oc1ccccc1)C(=O)N(C[C@H]1CCCN1)c1ccc(Cl)cc1 (stereo partly specified)	600	80	
CC(Oc1ccccc1)C(=O)N(Cc1ccccc1)C[C@H]1CCCN1 (stereo partly specified)	90		
CC(=O)Nc1ccc(N(C[C@H]2CCCN2)C(=O)[C@@H](C)Oc2cccc(Cl)c2)cc1	1200	100	≥ 10000
Cc1ccccc1CN(C[C@H]1CCCN1)C(=O)[C@@H](C)Oc1cccc(Cl)c1	180	90	2200
CC(=O)Nc1ccc(N(C[C@H]2CCCN2)C(=O)C(C)Oc2cccc(Cl)c2)cc1 (stereo partly specified)	30	90	260
CC(=O)Nc1cccc(N(C[C@H]2CCCN2)C(=O)C(C)Oc2cccc(Cl)c2)c1 (stereo partly specified)	140	60	
CC(Oc1ccccc1Cl)C(=O)N(Cc1ccccc1Cl)C[C@H]1CCCN1 (stereo partly specified)	260	60	
CC(Oc1ccccc1Cl)C(=O)N(Cc1ccc(Cl)cc1)C[C@H]1CCCN1 (stereo partly specified)	60	80	

SMILES	EC50 [1] [nM]	Activity [2] [%]	Ki [3] [nM]
C[C@@H](Oc1cccc(Cl)c1)C(=O)N(Cc1ccccc1)C[C@H]1CCCN1	1500	100	≥ 10000
CC(=O)Nc1ccc(N(C[C@H]2CCCN2)C(=O)[C@H](C)Oc2cccc(Cl)c2)cc1	20	100	250
CC(=O)Nc1cccc(N(C[C@H]2CCCN2)C(=O)C(C)Oc2ccccc2Cl)c1 (stereo partly specified)	200	70	
CC(=O)Nc1ccc(N(C[C@H]2CCCN2)C(=O)C(C)Oc2ccccc2)cc1 (stereo partly specified)	330		
CC(Oc1ccccc1)C(=O)N(C[C@H]1CCCN1)c1ccc(CC#N)cc1 (stereo partly specified)	9000		
CC(Oc1cccc(Cl)c1)C(=O)N(Cc1ccc(Cl)cc1)C[C@H]1CCCN1 (stereo partly specified)	30	90	
CCC(Oc1ccccc1)C(=O)N(Cc1ccccc1)C[C@H]1CCCN1 (stereo partly specified)	900		
CC(=O)Nc1ccc(N(C[C@H]2CCCN2)C(=O)C(C)Oc2ccccc2Cl)cc1 (stereo partly specified)	50	90	
CCC(Oc1ccccc1)C(=O)N(C[C@H]1CCCN1)c1cccc(SC)c1 (stereo partly specified)	> 10000		
CC(Oc1ccccc1)C(=O)N(Cc1cccc(Cl)c1)C[C@H]1CCCN1 (stereo partly specified)	50	80	
CCC(Oc1ccccc1)C(=O)N(C[C@H]1CCCN1)c1ccc(CC#N)cc1 (stereo partly specified)	14000		
CC(Oc1ccccc1)C(=O)N(C[C@H]1CCCN1)c1ccccc1 (stereo partly specified)	440		
O=C(COc1ccccc1)N(C[C@H]1CCCN1)c1ccccc1	> 10000		
C[C@H](Oc1cccc(Cl)c1)C(=O)N(Cc1ccccc1)C[C@H]1CCCN1	4	90	30
Cc1cccc(CN(C[C@H]2CCCN2)C(=O)C(C)Oc2ccccc2)c1 (stereo partly specified)	80	90	
Cc1ccccc1CN(C[C@H]1CCCN1)C(=O)C(C)Oc1cccc(Cl)c1 (stereo partly specified)	3	100	100
COc1cccc(N(C[C@H]2CCCN2)C(=O)C(C)Oc2ccccc2)c1 (stereo partly specified)	4000		
Cc1ccccc1CN(C[C@H]1CCCN1)C(=O)[C@H](C)Oc1cccc(Cl)c1	2	90	30
